These results are taken from US12398132B2, “Derivatives of 4-(imidazo[1,2-a]pyridin-3-yl)-n-(pyridinyl)pyrimidin-2-amine as therapeutic agents” (AUCENTRA THERAPEUTICS PTY LTD, priority 2019, dated 2025).

One assay has as its target CDK6/D3 (Homo sapiens, UniProt Q00534). Put plainly: ADP Glo kinase assay, CDK6/D3. To be noted: CDK6D3; for remaining activity at 10 µM: compound at 10 μM, read-out: residual enzymatic activity (%) at 10 μM; for remaining activity at 1 µM: compound at 1 μM (values marked *), read-out: residual enzymatic activity (%) at 1 μM*. The assay is classed as biochemical. (In ADP-Glo the light output rises with the ADP produced.)

A further assay concerns the target CDK7HMAT1 (Homo sapiens, UniProt P50613). To be noted: 10 µM.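 Also: kinase activity measured with an ADP-Glo luminescent kinase assay.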
The test system of a further assay is MV-4-11. Kind of assay: Proliferation assay (resazurin/MTT), MV-4-11. To be noted: Homo sapiens, MV4-11, read-out: 72 h Growth inhibition GI50, MV-4-11 cells. The assay is classed as cell-based.
Another assay addresses CDK4/D1 (Homo sapiens, UniProt P11802). Kind of assay: ADP Glo kinase assay, CDK4/D1. The assay is classed as biochemical. To be noted: CDK4D1; for remaining activity at 10 µM: compound at 10 μM, read-out: residual enzymatic activity (%) at 10 μM; for remaining activity at 1 µM: compound at 1 μM (values marked *), read-out: residual enzymatic activity (%) at 1 μM*.
The target in another assay is CDK2E1 (Homo sapiens, UniProt P24941). To be noted: 1 µM.
The next assay deals with CDK9/CyclinT1 (Homo sapiens, UniProt P50750). Kind of assay: ADP Glo kinase assay, CDK9/CyclinT1. It is filed as biochemical. To be noted: CDK9T1; for Ki: apparent Ki calculated from Km (ATP) and IC50, read-out: CDK inhibition Ki; for remaining activity at 10 µM: compound at 10 μM, read-out: residual enzymatic activity (%) at 10 μM; for remaining activity at 1 µM: compound at 1 μM (values marked *), read-out: residual enzymatic activity (%) at 1 μM*.

In another assay the test system is U937. Put plainly: Proliferation assay (resazurin/MTT), U937. To be noted: Homo sapiens, U-937, read-out: 72 h Growth inhibition GI50, U937 cells. The assay is classed as cell-based. On the technique in general: Alamar Blue is a resazurin reagent that responds to reducing activity.
The target in the next assay is CDK1B (Homo sapiens, UniProt P06493).

Where two headings read alike, the source gives them in different places.

Sequence of CDK6/D3 (Q00534 whole entry, species assumed): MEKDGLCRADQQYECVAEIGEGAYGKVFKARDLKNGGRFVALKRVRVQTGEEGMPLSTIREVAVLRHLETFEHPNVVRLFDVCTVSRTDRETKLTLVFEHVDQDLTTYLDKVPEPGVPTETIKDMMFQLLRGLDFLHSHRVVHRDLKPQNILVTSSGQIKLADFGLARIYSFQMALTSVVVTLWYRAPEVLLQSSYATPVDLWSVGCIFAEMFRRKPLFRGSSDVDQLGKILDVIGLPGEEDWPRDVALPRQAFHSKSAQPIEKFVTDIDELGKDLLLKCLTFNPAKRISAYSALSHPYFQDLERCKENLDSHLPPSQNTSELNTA
Sequence of CDK6/D3 (P30281 whole entry partner, species assumed): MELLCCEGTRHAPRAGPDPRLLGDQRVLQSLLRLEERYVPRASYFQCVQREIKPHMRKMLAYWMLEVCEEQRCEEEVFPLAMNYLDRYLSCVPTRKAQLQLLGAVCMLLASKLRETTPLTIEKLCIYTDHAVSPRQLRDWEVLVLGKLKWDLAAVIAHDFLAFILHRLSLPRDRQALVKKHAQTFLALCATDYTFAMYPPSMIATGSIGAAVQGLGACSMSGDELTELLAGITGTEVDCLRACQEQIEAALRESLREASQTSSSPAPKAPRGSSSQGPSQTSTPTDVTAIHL
Sequence of CDK1B (P06493 whole entry): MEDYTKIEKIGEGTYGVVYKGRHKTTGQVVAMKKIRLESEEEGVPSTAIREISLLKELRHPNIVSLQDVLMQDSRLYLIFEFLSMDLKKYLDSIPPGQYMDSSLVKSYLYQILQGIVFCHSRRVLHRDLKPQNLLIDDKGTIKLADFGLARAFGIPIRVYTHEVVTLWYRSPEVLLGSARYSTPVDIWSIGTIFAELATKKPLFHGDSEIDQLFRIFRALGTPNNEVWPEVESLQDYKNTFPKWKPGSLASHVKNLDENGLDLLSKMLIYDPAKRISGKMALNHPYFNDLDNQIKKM
Sequence of CDK1B (P14635 whole entry partner): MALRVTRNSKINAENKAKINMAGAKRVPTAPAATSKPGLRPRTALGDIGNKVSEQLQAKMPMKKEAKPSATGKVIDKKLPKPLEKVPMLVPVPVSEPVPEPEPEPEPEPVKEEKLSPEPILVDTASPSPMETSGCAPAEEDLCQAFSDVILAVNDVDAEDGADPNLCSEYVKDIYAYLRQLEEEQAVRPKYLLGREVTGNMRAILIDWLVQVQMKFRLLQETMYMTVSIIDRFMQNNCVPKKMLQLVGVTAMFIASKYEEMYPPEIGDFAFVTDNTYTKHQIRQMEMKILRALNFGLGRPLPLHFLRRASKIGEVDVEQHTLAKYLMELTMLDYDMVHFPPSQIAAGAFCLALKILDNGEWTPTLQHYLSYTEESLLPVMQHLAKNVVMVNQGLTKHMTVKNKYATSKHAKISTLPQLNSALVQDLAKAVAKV
Sequence of CDK4/D1 (P11802 whole entry, species assumed): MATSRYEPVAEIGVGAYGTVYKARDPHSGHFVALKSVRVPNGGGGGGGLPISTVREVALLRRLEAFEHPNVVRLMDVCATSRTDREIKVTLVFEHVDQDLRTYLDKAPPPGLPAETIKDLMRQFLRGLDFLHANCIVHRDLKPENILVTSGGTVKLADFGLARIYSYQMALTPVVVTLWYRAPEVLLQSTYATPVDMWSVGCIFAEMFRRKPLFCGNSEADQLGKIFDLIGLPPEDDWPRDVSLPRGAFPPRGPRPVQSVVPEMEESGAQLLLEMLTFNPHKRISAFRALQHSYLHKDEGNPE
Sequence of CDK4/D1 (P24385 whole entry partner, species assumed): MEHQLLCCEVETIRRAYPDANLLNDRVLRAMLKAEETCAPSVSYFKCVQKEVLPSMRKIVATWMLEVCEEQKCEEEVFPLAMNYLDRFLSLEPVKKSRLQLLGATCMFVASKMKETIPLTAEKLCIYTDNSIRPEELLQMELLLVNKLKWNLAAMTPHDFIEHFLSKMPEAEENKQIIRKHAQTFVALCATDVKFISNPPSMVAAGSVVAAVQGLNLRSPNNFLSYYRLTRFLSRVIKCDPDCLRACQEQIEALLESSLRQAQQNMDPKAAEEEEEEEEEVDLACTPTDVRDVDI
Sequence of CDK7HMAT1 (P50613 whole entry): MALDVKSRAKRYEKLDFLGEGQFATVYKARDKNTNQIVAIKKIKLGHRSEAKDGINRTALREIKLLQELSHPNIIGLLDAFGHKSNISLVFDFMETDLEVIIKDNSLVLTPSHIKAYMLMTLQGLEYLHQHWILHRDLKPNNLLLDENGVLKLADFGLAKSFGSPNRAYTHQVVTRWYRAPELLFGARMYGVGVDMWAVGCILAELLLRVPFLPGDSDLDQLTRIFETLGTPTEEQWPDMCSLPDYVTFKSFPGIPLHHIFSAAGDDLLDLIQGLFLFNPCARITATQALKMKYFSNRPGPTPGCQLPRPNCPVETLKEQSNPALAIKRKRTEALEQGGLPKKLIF
Sequence of CDK7HMAT1 (P51946 whole entry partner): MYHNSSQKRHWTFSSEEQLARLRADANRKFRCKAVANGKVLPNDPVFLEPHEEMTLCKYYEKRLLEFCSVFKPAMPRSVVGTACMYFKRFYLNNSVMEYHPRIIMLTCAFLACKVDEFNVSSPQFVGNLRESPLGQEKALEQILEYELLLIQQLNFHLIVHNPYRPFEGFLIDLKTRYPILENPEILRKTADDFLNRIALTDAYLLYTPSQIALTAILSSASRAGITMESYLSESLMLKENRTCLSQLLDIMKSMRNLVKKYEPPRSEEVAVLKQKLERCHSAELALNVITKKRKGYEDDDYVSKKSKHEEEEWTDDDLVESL
Sequence of CDK7HMAT1 (P51948 whole entry partner): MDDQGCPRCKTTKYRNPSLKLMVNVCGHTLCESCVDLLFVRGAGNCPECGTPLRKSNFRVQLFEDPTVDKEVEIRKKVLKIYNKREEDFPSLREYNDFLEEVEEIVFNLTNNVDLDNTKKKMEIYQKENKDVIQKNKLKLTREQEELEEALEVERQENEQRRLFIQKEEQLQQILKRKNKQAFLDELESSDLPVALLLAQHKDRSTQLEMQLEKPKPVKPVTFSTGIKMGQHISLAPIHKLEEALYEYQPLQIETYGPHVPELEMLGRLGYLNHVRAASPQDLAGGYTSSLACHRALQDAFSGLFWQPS
Sequence of CDK9/CyclinT1 (P50750 whole entry, species assumed): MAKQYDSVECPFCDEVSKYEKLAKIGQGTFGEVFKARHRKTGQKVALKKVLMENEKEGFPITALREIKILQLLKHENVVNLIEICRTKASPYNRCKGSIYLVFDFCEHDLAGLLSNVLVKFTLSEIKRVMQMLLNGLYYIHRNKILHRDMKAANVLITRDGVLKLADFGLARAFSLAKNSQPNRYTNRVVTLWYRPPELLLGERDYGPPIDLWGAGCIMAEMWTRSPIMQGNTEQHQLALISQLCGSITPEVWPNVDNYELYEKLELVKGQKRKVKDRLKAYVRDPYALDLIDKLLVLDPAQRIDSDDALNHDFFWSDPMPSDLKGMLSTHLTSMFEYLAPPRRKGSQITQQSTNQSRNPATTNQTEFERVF
Sequence of CDK9/CyclinT1 (O60563 whole entry partner, species assumed): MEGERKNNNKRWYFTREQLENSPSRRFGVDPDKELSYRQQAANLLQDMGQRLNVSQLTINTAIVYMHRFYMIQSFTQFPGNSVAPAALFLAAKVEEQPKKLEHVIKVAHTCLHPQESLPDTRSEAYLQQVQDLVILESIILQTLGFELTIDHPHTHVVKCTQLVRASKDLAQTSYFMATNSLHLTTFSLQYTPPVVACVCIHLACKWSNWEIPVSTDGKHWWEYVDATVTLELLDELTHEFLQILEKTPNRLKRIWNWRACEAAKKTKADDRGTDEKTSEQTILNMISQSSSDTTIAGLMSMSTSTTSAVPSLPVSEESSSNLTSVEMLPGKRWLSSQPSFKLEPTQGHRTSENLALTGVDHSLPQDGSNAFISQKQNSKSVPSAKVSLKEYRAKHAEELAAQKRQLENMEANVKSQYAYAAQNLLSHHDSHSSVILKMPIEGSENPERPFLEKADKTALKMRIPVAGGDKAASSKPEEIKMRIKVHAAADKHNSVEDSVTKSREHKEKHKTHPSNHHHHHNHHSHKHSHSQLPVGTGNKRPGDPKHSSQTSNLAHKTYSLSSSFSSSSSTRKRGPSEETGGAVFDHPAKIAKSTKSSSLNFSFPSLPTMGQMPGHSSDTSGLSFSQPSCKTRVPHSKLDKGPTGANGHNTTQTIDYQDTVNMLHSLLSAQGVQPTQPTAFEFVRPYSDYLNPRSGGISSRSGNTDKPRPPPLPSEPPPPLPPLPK
Procedure for CDK4/D1: (§1) Inhibition of FLT3(WT), FLT3(ITD) and FLT3(D835Y) and CDKs were determined using ADP Glo Kinase assays (Promega Corporation, Madison, WI, USA). […] Similarly, kinase reaction for CDK4/D1 and CDK6/D3 was performed with reaction buffer (40 nM Tris base pH 7.5, 20 mM MgCl2, 0.4 mM DTT), 0.1 mg/ml BSA and RB-CTF substrate (retinoblastoma protein1 C-terminal fraction). For CDK9/CyclinT1, the kinase reaction was performed with the standard assay buffer and Kinase Dilution Buffer and RBER-IRStide substrate. Half-maximal inhibition (IC50) values were calculated using a 4-parameter logistic non-linear regression model with Graphpad prism (Version 6.0). Apparent inhibition constants (Ki) values were calculated from Km (ATP) and IC50 values for the respective kinases.
Procedure for CDK9/CyclinT1: as §1

As for `CC(=O)N1CCCN(c2ccc(Nc3nccc(-c4cnc5ccccn45)n3)nc2)CC1` [Cmpd 6, 1-(4-(6-((4-(Imidazo[1,2-a]pyridin-3-yl)pyrimidin-2-yl)amino)pyridin-3-yl)-1,4-diazepan-1-yl)ethan-1-one], the remaining activity at 10 µM came out at 24% at CDK6/D3 and 48% on CDK4/D1. Moreover, the activity on CDK7HMAT1 was found to be 70%; at CDK2E1, 85%; at CDK1B (10 µM), 50%. Moreover, the GI50 stood at 35 nM in the assay with MV-4-11 and 11400 nM in the assay with U937. Further, on CDK9/CyclinT1, the Ki was 1380 nM.
As to `CC(=O)N1CCN(c2ccc(Nc3nccc(-c4cnc5ccc(F)cn45)n3)nc2)CC1` [Cmpd 8, 1-(4-(6-((4-(6-Fluoroimidazo[1,2-a]pyridin-3-yl)pyrimidin-2-yl)amino)pyridin-3-yl)piperazin-1-yl)ethan-1-one], the remaining activity at 10 µM at CDK6/D3 turned out to be 40%; at CDK4/D1 it was 27%. Moreover, the results for the activity at CDK7HMAT1, at CDK2E1 and on CDK1B (10 µM) were 82%, 59% and 27%, respectively. The concentration for 50% growth inhibition (GI50) in the assay on MV-4-11 came to 30 nM; in the assay with U937, 1410 nM. For the same molecule, the Ki on CDK9/CyclinT1 is 289 nM.
Take `CC(=O)N1CCN(c2ccc(Nc3nccc(-c4cnc5ccc(C(F)(F)F)cn45)n3)nc2)CC1` [Cmpd 11, 1-(4-(6-((4-(6-(Trifluoromethyl)imidazo[1,2-a]pyridin-3-yl)pyrimidin-2-yl)amino)pyridin-3-yl)piperazin-1-yl)ethan-1-one]: the Ki on CDK6/D3 (apparent Ki calculated from Km (ATP) and IC50, read-out: CDK inhibition Ki) is more than 5000 nM. Besides, the activity on CDK7HMAT1 is 60%; at CDK2E1 it was 97%; on CDK1B (10 µM) it was 38%. The GI50 turned out to be 14 nM in the assay on MV-4-11 and 3900 nM in the assay with U937. Moreover, the remaining activity at 10 µM on CDK4/D1 came to 46%; at CDK9/CyclinT1, 32%.
Regarding `CC(=O)N1CCN(c2ccc(Nc3nccc(-c4cnc5ccc(-c6ccco6)cn45)n3)nc2)CC1` [Cmpd 12, 1-(4-(6-((4-(6-(Furan-2-yl)imidazo[1,2-a]pyridin-3-yl)pyrimidin-2-yl)amino)pyridin-3-yl)piperazin-1-yl)ethan-1-one], the remaining activity at 10 µM at CDK6/D3 was 42%; on CDK4/D1 it was 93%; on CDK9/CyclinT1 it was 29%. Moreover, the values for the activity at CDK7HMAT1, at CDK2E1 and on CDK1B (10 µM) were 86%, 67% and 70%, respectively. Besides, the GI50 with MV-4-11 turned out to be 9 nM; in the assay with U937, 400 nM.
Take `CC(=O)N1CCN(c2ccc(Nc3nccc(-c4cnc5ccc(-c6ccccc6)cn45)n3)nc2)CC1` [Cmpd 14, 1-(4-(6-((4-(6-Phenylimidazo[1,2-a]pyridin-3-yl)pyrimidin-2-yl)amino)pyridin-3-yl)piperazin-1-yl)ethan-1-one]: the remaining activity at 10 µM at CDK6/D3 was found to be 92%; on CDK4/D1, 69%. Further, the figures for the activity at CDK7HMAT1, at CDK2E1 and at CDK1B (10 µM) were 78%, 56% and 94%, respectively. The concentration for 50% growth inhibition (GI50) in the assay on MV-4-11 turned out to be 7 nM; with U937 it was 664 nM. Further, on CDK9/CyclinT1, the Ki is 699 nM.
As to `CC(=O)N1CCN(c2ccc(Nc3nccc(-c4cnc5ccc(-c6cccnc6)cn45)n3)nc2)CC1` [Cmpd 15, 1-(4-(6-((4-(6-(Pyridin-3-yl)imidazo[1,2-a]pyridin-3-yl)pyrimidin-2-yl)amino)pyridin-3-yl)piperazin-1-yl)ethan-1-one], the results for the remaining activity at 10 µM on CDK6/D3 and on CDK4/D1 were 91% and 77%, respectively. Also, the figures for the activity on CDK7HMAT1, at CDK2E1 and at CDK1B (10 µM) were 65%, 88% and 64%, respectively. The GI50 is 5 nM in the assay on MV-4-11 and 1480 nM in the assay with U937. Moreover, the Ki on CDK9/CyclinT1 was 680 nM.
As to `CC(=O)N1CCN(c2ccc(Nc3nccc(-c4cnc5ccc(-c6cnc(N)nc6)cn45)n3)nc2)CC1` [Cmpd 18, 1-(4-(6-((4-(6-(2-Aminopyrimidin-5-yl)imidazo[1,2-a]pyridin-3-yl)pyrimidin-2-yl)amino)pyridin-3-yl)piperazin-1-yl)ethan-1-one], the remaining activity at 10 µM at CDK6/D3 was 100%; at CDK4/D1 it was 48%. Besides, the activity on CDK7HMAT1 stood at 99%; at CDK2E1, 97%; on CDK1B (10 µM) it was 69%. In addition, the GI50 in the assay with MV-4-11 amounted to 23 nM; with U937 it was 8700 nM.
Take `COc1ncc(-c2ccc3ncc(-c4ccnc(Nc5ccc(N6CCN(C(C)=O)CC6)cn5)n4)n3c2)cn1` [Cmpd 19, 1-(4-(6-((4-(6-(2-Methoxypyrimidin-5-yl)imidazo[1,2-a]pyridin-3-yl)pyrimidin-2-yl)amino)pyridin-3-yl)piperazin-1-yl)ethan-1-one]: the remaining activity at 10 µM at CDK6/D3 came to 65%; at CDK4/D1, 53%; at CDK9/CyclinT1 it was 33%. Moreover, the activity at CDK7HMAT1 amounted to 54%; at CDK2E1, 82%; at CDK1B (10 µM) it was 96%. Further, the GI50 is 17 nM in the assay with MV-4-11 and 6710 nM in the assay with U937.
Consider `CC(=O)N1CCN(c2ccc(Nc3nccc(-c4cnc5ccc(-c6cc7ccccc7o6)cn45)n3)nc2)CC1` [Cmpd 21, 1-(4-(6-((4-(6-(Benzofuran-2-yl)imidazo[1,2-a]pyridin-3-yl)pyrimidin-2-yl)amino)pyridin-3-yl)piperazin-1-yl)ethan-1-one], for which the remaining activity at 10 µM stood at 102% at CDK6/D3 and 78% at CDK4/D1. In addition, the figures for the activity at CDK7HMAT1, at CDK2E1 and at CDK1B (10 µM) were 97%, 86% and 95%, respectively. The GI50 in the assay on MV-4-11 came to 17 nM; in the assay on U937, 4560 nM. Moreover, the Ki at CDK9/CyclinT1 is more than 5000 nM.
Consider `CC(=O)N1CCN(c2ccc(Nc3nccc(-c4cnc5ccc(-c6cc7ccccc7s6)cn45)n3)nc2)CC1` [Cmpd 22, 1-(4-(6-((4-(6-(Benzo[b]thiophen-2-yl)imidazo[1,2-a]pyridin-3-yl)pyrimidin-2-yl)amino)pyridin-3-yl)piperazin-1-yl)ethan-1-one], for which the remaining activity at 10 µM at CDK6/D3 was 102%; on CDK4/D1 it was 64%. Also, the figures for the activity on CDK7HMAT1, on CDK2E1 and on CDK1B (10 µM) were 106%, 83% and 100%, respectively. Also, the GI50 was 2 nM in the assay on MV-4-11 and more than 10000 nM with U937. Moreover, the Ki on CDK9/CyclinT1 is more than 5000 nM.
Consider `CC(=O)N1CCN(c2ccc(Nc3nccc(-c4cnc5ccc(-c6cc7ccccc7n6C)cn45)n3)nc2)CC1` [Cmpd 39, 1-(4-(6-((4-(6-(1-Methyl-1H-indol-2-yl)imidazo[1,2-a]pyridin-3-yl)pyrimidin-2-yl)amino)pyridin-3-yl)piperazin-1-yl)ethan-1-one], for which the remaining activity at 1 µM turned out to be 85% at CDK6/D3, 95% at CDK4/D1 and 69% on CDK9/CyclinT1. Moreover, the GI50 in the assay on MV-4-11 was 38 nM; in the assay on U937 it was more than 10000 nM. Further, the activity on CDK2E1 amounted to 92%; on CDK1B (1 µM) it was 101%.
As to `CC(=O)N1CCN(c2ccc(Nc3ncc(C)c(-c4cnc5ccccn45)n3)nc2)CC1` [Cmpd 44, 1-(4-(6-((4-(Imidazo[1,2-a]pyridin-3-yl)-5-methylpyrimidin-2-yl)amino)pyridin-3-yl)piperazin-1-yl)ethan-1-one], the remaining activity at 1 µM was determined as 68% on CDK6/D3, 63% on CDK4/D1 and 93% at CDK9/CyclinT1. Besides, the results for the GI50 in the assay on MV-4-11 and with U937 were 387 nM and more than 10000 nM, respectively. The values for the activity at CDK2E1 and at CDK1B (1 µM) were 66% and 91%, respectively.
For `CN1CCN(c2ccc(Nc3nccc(-c4cnc5ccc(-c6ccccc6)cn45)n3)nc2)CC1` [Cmpd 46, N-(5-(4-Methylpiperazin-1-yl)pyridin-2-yl)-4-(6-phenylimidazo[1,2-a]pyridin-3-yl)pyrimidin-2-amine], the remaining activity at 1 µM on CDK6/D3 came to 86%; at CDK4/D1 it was 63%. For the same molecule, the GI50 in the assay on MV-4-11 amounted to 7 nM; with U937 it was 2400 nM.
As for `CS(=O)(=O)N1CCN(c2ccc(Nc3nccc(-c4cnc5ccccn45)n3)nc2)CC1` [Cmpd 48, 4-(Imidazo[1,2-a]pyridin-3-yl)-N-(5-(4-(methylsulfonyl)piperazin-1-yl)pyridin-2-yl)pyrimidin-2-amine], the remaining activity at 1 µM at CDK6/D3 turned out to be 71%; at CDK4/D1, 76%; at CDK9/CyclinT1, 43%. The GI50 was 48 nM in the assay on MV-4-11 and 1880 nM in the assay with U937. Besides, the activity at CDK2E1 was determined as 73%; on CDK1B (1 µM) it was 90%.
Consider `CS(=O)(=O)N1CCN(c2ccc(Nc3nccc(-c4cnc5ccc(-c6ccccc6)cn45)n3)nc2)CC1` [Cmpd 54, N-(5-(4-(Methylsulfonyl)piperazin-1-yl)pyridin-2-yl)-4-(6-phenylimidazo[1,2-a]pyridin-3-yl)pyrimidin-2-amine], for which the 50% growth inhibitory concentration (GI50) worked out at 9 nM in the assay on MV-4-11 and 4330 nM in the assay with U937. For the same molecule, on CDK9/CyclinT1, the remaining activity at 1 µM was 52%.

The GI50 is the concentration that inhibits growth by half.
